biological target: T1, human ACC2 (Homo sapiens, UniProt O00763); experiment: ACC2 assay, spectrophotometric 384 well assay (NADH-linked, coupled lactate dehydrogenase/pyruvate kinase); type: biochemical; conditions: not given
T1 construct: made in house; host or cells: insect cells (baculoviral expression system)
Procedure: Spectrophotometric 384 Well Assay
Malonyl CoA formation by acetyl CoA carboxylases is stoichometrically linked to the consumption of ATP. ACC2 activity is measured in a NADH-linked kinetic method measuring ADP generated during the ACC reaction using a coupled lactate dehydrogenase/pyruvate kinase reaction.
For biological testing, a human ACC2 construct which lacks the 128 amino acids at the N-terminus for increased solubility (nt 385-6966 in Genbank entry AJ575592) is cloned. The protein is then expressed in insect cells using a baculoviral expression system. Protein purification is performed by anion exchange.
All compounds are dissolved in dimethyl sulfoxide (DMSO) to a concentration of 10 mM.
Assay reactions are then carried out in 384-well plates, with hACC2 in an appropriate dilution and at final assay concentrations (f.c.) of 100 mM Tris (pH 7.5), 10 mM trisodium citrate, 25 mM KHCO3, 10 mM MgCl2, 0.5 mg/ml BSA, 3.75 mM reduced L-glutathione, 15 U/ml lactate dehydrogenase, 0.5 mM phosphoenolpyruvate, 15 U/ml pyruvate kinase, compounds at different concentrations at final DMSO concentrations of 1%.
The enzymatic reaction is then started by addition of a mixture of NADH, acetyl Coenzyme A (both 200 μM f.c.) and ATP (500 uM f.c.). The decrease of the optical density (slope S) is then determined at 25° C. at a wavelength of 340 nm over 15 minutes in a spectrophotometric reader.
Each assay microtiter plate contains wells with vehicle instead of compound as controls for the non-inhibited enzyme (100% CTL; ‘HIGH’) and wells without acetyl-CoA as controls for non-specific NADH degradation (0% CTL; ‘LOW’).
The slope S is used for calculation of % CTL=(S(compound)−S(‘LOW’))/(S(‘HIGH’)−S(‘LOW’))*100. Compounds will give values between 100% CTL (no inhibition) and 0% CTL (complete inhibition).
For IC50 value determination, the sample slope in the presence of the test compound after subtraction of the low controls (S(compound)−S(‘LOW’)) are used.
An IC50 value is derived from the compound slopes at different dosages after subtraction of the low controls (S(compound)−S(‘LOW’)) by non-linear regression curve fitting (equation y=(A+((B−A)/(1+((C/x)^D))))).

T1 sequence (O00763 129-2458 limits assumed): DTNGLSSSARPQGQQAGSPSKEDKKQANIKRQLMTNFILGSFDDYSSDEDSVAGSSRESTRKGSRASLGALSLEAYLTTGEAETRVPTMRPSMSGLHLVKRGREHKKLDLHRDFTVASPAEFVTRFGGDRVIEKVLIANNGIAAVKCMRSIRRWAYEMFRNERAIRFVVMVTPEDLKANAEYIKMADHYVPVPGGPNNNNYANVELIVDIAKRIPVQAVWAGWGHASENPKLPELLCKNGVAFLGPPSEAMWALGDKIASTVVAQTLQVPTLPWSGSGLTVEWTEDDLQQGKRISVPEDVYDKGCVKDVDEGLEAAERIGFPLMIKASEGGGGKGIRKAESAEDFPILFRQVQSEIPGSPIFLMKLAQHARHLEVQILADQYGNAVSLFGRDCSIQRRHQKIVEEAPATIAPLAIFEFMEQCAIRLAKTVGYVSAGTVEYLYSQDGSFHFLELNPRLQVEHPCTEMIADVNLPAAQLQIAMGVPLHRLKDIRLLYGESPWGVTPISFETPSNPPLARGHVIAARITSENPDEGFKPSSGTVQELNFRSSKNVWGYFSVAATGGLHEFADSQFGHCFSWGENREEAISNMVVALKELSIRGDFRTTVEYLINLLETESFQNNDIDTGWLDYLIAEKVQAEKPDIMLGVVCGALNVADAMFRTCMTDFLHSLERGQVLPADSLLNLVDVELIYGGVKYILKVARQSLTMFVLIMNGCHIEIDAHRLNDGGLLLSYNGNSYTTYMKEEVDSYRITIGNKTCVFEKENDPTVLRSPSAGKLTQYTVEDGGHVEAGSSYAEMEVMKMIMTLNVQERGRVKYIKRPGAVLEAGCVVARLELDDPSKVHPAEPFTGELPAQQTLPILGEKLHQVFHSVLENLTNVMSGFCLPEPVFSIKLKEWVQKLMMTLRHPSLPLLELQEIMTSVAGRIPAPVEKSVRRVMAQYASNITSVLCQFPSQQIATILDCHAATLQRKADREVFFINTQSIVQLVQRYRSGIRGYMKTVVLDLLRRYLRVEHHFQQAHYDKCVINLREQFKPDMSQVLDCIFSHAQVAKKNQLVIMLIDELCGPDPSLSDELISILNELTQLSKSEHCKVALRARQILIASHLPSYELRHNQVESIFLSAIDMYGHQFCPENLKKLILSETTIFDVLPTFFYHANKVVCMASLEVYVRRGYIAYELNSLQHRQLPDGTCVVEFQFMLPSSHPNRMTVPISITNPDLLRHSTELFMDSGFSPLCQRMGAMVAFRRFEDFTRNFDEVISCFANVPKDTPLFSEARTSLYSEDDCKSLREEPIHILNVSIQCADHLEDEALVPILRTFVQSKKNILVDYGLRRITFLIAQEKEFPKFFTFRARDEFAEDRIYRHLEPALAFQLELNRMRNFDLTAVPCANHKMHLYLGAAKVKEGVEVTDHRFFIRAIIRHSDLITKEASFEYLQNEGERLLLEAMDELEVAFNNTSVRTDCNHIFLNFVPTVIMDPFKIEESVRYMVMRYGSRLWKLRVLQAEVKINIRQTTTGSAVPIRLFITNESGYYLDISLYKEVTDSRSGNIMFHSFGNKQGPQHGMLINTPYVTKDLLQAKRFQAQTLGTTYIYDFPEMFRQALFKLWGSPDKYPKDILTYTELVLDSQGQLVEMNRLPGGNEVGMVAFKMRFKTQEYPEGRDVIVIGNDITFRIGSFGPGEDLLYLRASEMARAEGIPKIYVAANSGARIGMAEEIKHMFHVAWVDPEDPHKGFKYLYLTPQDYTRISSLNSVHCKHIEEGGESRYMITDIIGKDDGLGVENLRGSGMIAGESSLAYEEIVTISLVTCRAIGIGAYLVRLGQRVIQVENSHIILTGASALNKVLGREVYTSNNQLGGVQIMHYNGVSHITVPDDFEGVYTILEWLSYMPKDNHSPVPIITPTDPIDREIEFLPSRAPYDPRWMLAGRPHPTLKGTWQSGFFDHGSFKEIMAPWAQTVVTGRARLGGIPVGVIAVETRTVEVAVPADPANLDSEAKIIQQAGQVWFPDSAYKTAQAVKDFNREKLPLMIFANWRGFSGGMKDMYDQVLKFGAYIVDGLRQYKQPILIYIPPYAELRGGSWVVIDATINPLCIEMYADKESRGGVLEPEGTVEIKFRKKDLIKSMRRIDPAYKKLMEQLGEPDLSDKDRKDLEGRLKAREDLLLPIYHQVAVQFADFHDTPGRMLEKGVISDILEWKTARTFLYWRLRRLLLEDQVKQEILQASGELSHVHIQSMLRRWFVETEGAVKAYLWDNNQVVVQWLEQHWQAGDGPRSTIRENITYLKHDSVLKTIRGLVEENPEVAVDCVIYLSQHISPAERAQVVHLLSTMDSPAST

Row | SMILES | IC50 [nM]
1 | CCOc1ccc(C2CCN(c3ccc([C@H](C)NC(=O)CF)cc3)CC2)cc1 [Example 3.8] | 440

same assay, conditions: ACC2 assay; human ACC2 construct lacking 128 N-terminal amino acids; 25° C., 340 nm, 15 minutes; read-out: IC50

Row | SMILES | IC50 [nM]
2 | C[C@H](NC(=O)C1CC1)c1ccc(N2CCC(c3ccc(OC4CCC4)cc3)CC2)cc1 [Example 1.16] | 1240
3 | CC(C)Oc1ccc(C2CCN(c3ccc([C@H](C)NC(=O)N(C)C)cc3)CC2)cc1 [Example 1.9] | 610
4 | CCOc1ccc(C2CCN(c3ccc([C@H](C)NC(=O)N(C)C)cc3)CC2)cc1 [Example 1.17] | 820
5 | CC(C)Oc1ccc(C2CCN(c3ccc([C@H](C)NC(=O)C4CC4)cc3)CC2)cc1 [Example 1.10] | 800
6 | CCCOc1ccc(C2CCN(c3ccc([C@H](C)NC(C)=O)cc3)CC2)cc1 [Example 1.1, (S)—N-(1-{4-[4-(4-Propoxy-phenyl)-piperidin-1-yl]-phenyl}-ethyl)-acetamide] | 70
7 | CC(=O)N[C@@H](C)c1ccc(N2CCC(c3cccc(OC(C)C)c3)CC2)cc1 [Example 1.25] | 370
8 | C[C@H](NC(=O)N(C)C)c1ccc(N2CCC(c3ccc(OCC4CC4)cc3)CC2)cc1 [Example 1.24] | 540
9 | COc1cc(C(C)NC(C)=O)ccc1N1CCC(c2ccc(OC3CCC3)cc2)CC1 (stereo not shown) [Example 1.51] | 4410
10 | CC(=O)NC(C)c1ccc(N2CCC(c3ccc(OCC4CC4)cc3F)CC2)c(F)c1 (stereo not shown) [Example 1.31] | 150
11 | CCCOc1ccc(C2CCN(c3ccc([C@H](C)NC(=O)N(C)C)cc3)CC2)cc1 [Example 1.26] | 340
12 | CCOc1cc(C2CCN(c3ccc([C@H](C)NC(C)=O)cc3)CC2)ccn1 [Example 1.19] | 820
13 | CC(=O)NC(C)c1ccc(N2CCC(c3ccc(OC(C)C)cc3)CC2)cc1F (stereo not shown) [Example 1.46] | 370
14 | C[C@H](NC(=O)C1CC1)c1ccc(N2CCC(c3ccc(OCC4CC4)cc3)CC2)cc1 [Example 1.15] | 1850
15 | CC(=O)NC(C)c1ccc(N2CCC(c3cccc(OC(C)C)c3)CC2)cc1F (stereo not shown) [Example 1.42] | 1260
16 | CCOc1ccc(C2CCN(c3ccc([C@H](C)NC(C)=O)cc3)CC2)c(OC)c1 [Example 1.11] | 440
17 | COc1ccc(C2CCN(c3ccc(CC(C)NC(C)=O)cc3)CC2)cc1 (stereo not shown) [Example 1.61] | 4470
18 | CCCOc1ccc(C2CCN(c3ccc([C@H](C)NC(=O)C4CC4)cc3)CC2)cc1 [Example 1.21] | 640
19 | CC(=O)N[C@@H](C)c1ccc(N2CCC(c3cccc(OC4CCC4)c3)CC2)cc1 [Example 1.14] | 450
20 | CCOc1ccc(C2CCN(c3ccc(CCC(C)NC(C)=O)cc3)CC2)cc1 (stereo not shown) [Example 1.70] | 8470
21 | CCOc1ccc(C2CCN(c3ccc(CC(C)NC(C)=O)cc3)CC2)cc1 (stereo not shown) [Example 1.60] | 1220

Row | SMILES | IC50 [nM]
22 | CCCOc1ccc(C2CCN(c3ccc(C(C)NC(C)=O)c(F)c3)CC2)c(C)c1 (stereo not shown) [Example 1.44] | 160
23 | CCCOc1ccc(C2CCN(c3ccc([C@H](C)NC(C)=O)cc3)CC2)c(C)c1 [Example 1.3] | 50
24 | CC(=O)NC(C)c1ccc(N2CCC(c3ccc(OCC4CC4)cc3F)CC2)cc1F (stereo not shown) [Example 1.48] | 460
25 | CC(=O)N[C@@H](C)c1ccc(N2CCC(c3ccc(OC4CCC4)cc3)CC2)cc1 [Example 1.4] | 230
26 | CC(=O)NC(C)c1ccc(N2CCC(c3cccc(OC4CCC4)c3)CC2)cc1F (stereo not shown) [Example 1.47] | 430
27 | COc1ccc(C2CCN(c3ccc([C@H](C)NC(C)=O)cc3)CC2)cc1 [Example 1.27] | 2160
28 | CC(=O)N[C@@H](C)c1ccc(N2CCC(c3cccc(OCC4CC4)c3)CC2)cc1 [Example 1.5] | 880
29 | CCOc1ccc(C2CCN(c3ccc(C(C)NC(C)=O)c(F)c3)CC2)cc1 (stereo not shown) [Example 1.45] | 350
30 | CCCOc1cccc(C2CCN(c3ccc([C@H](C)NC(C)=O)cc3)CC2)c1 [Example 1.20] | 660
31 | CCOc1cccc(C2CCN(c3ccc(C(C)NC(C)=O)c(F)c3)CC2)c1 (stereo not shown) [Example 1.41] | 1270
32 | C[C@H](NC(=O)N(C)C)c1ccc(N2CCC(c3ccc(OC4CCC4)cc3)CC2)cc1 [Example 1.22] | 250
33 | CC(=O)NC(C)c1ccc(N2CCC(c3ccc(OC(C)C)cc3)CC2)c(F)c1 (stereo not shown) [Example 1.33] | 460
34 | CCOc1ccc(C2CCN(c3ccc([C@H](C)NC(=O)C4CC4)cc3)CC2)cc1 [Example 1.8] | 680
35 | CCOc1cccc(C2CCN(c3ccc([C@H](C)NC(C)=O)cc3)CC2)c1 [Example 1.6] | 1120
36 | CCCOc1ccc(C2CCN(c3ccc(C(C)NC(C)=O)cc3OC)CC2)cc1 (stereo not shown) [Example 1.52] | 4230
37 | CCCOc1ccc(C2CCN(c3ccc(C(C)NC(C)=O)cc3F)CC2)cc1 (stereo not shown) [Example 1.32] | 230
38 | CC(=O)N[C@@H](C)c1ccc(N2CCC(c3ccc(OCC4CC4(F)F)cc3)CC2)cc1 (stereo partly shown) [Example 1.7] | 90
39 | CCOc1ccc(C2CCN(c3ccc([C@H](C)NC(C)=O)cc3)CC2)cc1 [Example 1.2] | 150
40 | CCOc1ccc(C2CCN(c3ccc([C@H](C)NC(C)=O)cc3)CC2)cn1 [Example 1.12] | 3170

More lines, now with the values ahead:

Row | IC50 [nM] | SMILES
41 | 3690 | CCOc1ccc(C2CCN(c3ccc([C@H](C)NC(=O)N(CC)CC)cc3)CC2)cc1 [Example 4.4]
42 | 200 | CCOc1ccc(C2CCN(c3ccc([C@H](C)NC(=O)c4sc(NC(C)=O)nc4C)cc3)CC2)cc1 [Example 3.6]
43 | 1480 | CCOc1ccc(C2CCN(c3ccc([C@H](C)NC(=O)c4csc(NC(C)=O)n4)cc3)CC2)cc1 [Example 3.7]
44 | 690 | CCOc1ccc(C2CCN(c3ccc([C@H](C)NC(=O)c4cncs4)cc3)CC2)cc1 [Example 2.2]
45 | 3430 | CCOc1ccc(C2CCN(c3ccc([C@H](C)N(C)C(C)=O)cc3)CC2)cc1 [Example 6.1, (S)—N-(1-{4-[4-(4-Ethoxy-phenyl)-piperidin-1-yl]-phenyl}-ethyl)-N-methyl-acetamide]
46 | 4530 | CCOc1ccc(C2CCN(c3ccc([C@H](C)NC(=O)c4cncc(NC(C)=O)c4)cc3)CC2)cc1 [Example 3.5]
47 | 6910 | CCOc1ccc(C2CCN(c3ccc([C@H](C)NC(=O)COC)cc3)CC2)cc1 [Example 2.5]
48 | 760 | CCOc1ccc(C2CCN(c3ccc([C@H](C)NC(=O)C(C)F)cc3)CC2)cc1 (stereo partly shown) [Example 3.3]
49 | 4150 | CCOc1ccc(C2CCN(c3ccc([C@H](C)NC(=O)C4(C#N)CC4)cc3)CC2)cc1 [Example 2.1, (S)-1-Cyano-cyclopropanecarboxylic acid (1-{4-[4-(4-ethoxy-phenyl)-piperidin-1-yl]-phenyl}-ethyl)-amide]
50 | 110 | CCOc1ccc(C2CCN(c3ccc([C@H](C)NC(=O)C(F)(F)F)cc3)CC2)cc1 [Example 2.6]
51 | 2090 | CCOc1ccc(C2CCN(c3ccc([C@H](C)NC(=O)OC)cc3)CC2)cc1 [Example 5.1, (S)-(1-{4-[4-(4-Ethoxy-phenyl)-piperidin-1-yl]-phenyl}-ethyl)-carbamic acid methyl ester]
52 | 1210 | CCOc1ccc(C2CCN(c3ccc([C@H](C)NC(=O)CSC)cc3)CC2)cc1 [Example 2.3]
53 | 380 | CCOc1ccc(C2CCN(c3ccc([C@H](C)NC(=O)C(F)F)cc3)CC2)cc1 [Example 3.2]
54 | 520 | CCOc1ccc(C2CCN(c3ccc([C@H](C)NC(=O)C4(C)CC4)cc3)CC2)cc1 [Example 2.7]
55 | 1980 | CCOc1ccc(C2CCN(c3ccc([C@H](C)NC(=O)N(C)CC)cc3)CC2)cc1 [Example 4.1, (S)-3-(1-{4-[4-(4-Ethoxy-phenyl)-piperidin-1-yl]-phenyl}-ethyl)-1-ethyl-1-methyl-urea]
56 | 710 | CCOc1ccc(C2CCN(c3ccc([C@H](C)NC(=O)CC)cc3)CC2)cc1 [Example 2.4]
57 | 4980 | CCOc1ccc(C2CCN(c3ccc([C@H](C)NC(=O)CO)cc3)CC2)cc1 [Example 3.9]
58 | 1160 | CCOc1ccc(C2CCN(c3ccc([C@H](C)NC(=O)N(C)c4cccnc4)cc3)CC2)cc1 [Example 4.2]
59 | 4880 | CCOc1ccc(C2CCN(c3ccc([C@H](C)NC(=O)Cc4cc[nH]c4)cc3)CC2)cc1 [Example 3.4]
60 | 2360 | CCOc1ccc(C2CCN(c3ccc([C@H](C)NC(=O)N4CCOCC4)cc3)CC2)cc1 [Example 4.3]
61 | 2770 | CCOc1ccc(C2CCN(c3ccc([C@H](C)NC(=O)c4coc(NC(C)=O)n4)cc3)CC2)cc1 [Example 3.1, (S)-2-Acetylamino-oxazole-4-carboxylic acid (1-{4-[4-(4-ethoxy-phenyl)-piperidin-1-yl]-phenyl}-ethyl)-amide]

Reference: patent US8765959B2, “Piperidine derivatives” (Boehringer Ingelheim International GmbH, priority 2011, dated 2014)
